# “Also recorded” adds a separate entry of the source.
# What was measured:
# [1] = test system: 6-OHDA unilateral medial forebrain bundle lesioned rat; assay: Tyrosine hydroxylase (TH) immunoreactivity in striatum and SNc of 6-OHDA lesioned rats; type: in vivo
# Protocol: treatment was initiated either prior to or after 6-OHDA lesioning (early and delayed treatment, respectively) as follows. (1) Early treatment: […] An estimated dose for a 250-g rat under this treatment was 10 mg/kg/day. (2) Delayed treatment: […] An estimated, clinically relevant, dose for a 250 g rat under this treatment was thus 30 mg/kg/day. Specifically for drug admixture into diet, drug was solubilized in 100% ETOH that was then added to the 16.2 g of food chow. Thereafter, the ETOH was evaporated off. […] Animals were weighed twice weekly and the amount of drug added to the chow was modified accordingly to maintain the daily required dose. […] Specifically, the 10 mg/kg oral daily drug dose in our rat studies is equivalent to the routine human daily oral dose (100 mg in a 65 kg human) of these […] used in T2DM, and the 30 mg/kg rat dose is equivalent to a threefold higher dose that is well-tolerated in humans. Following the exact same protocol described in Yin et al., 2012 [34] and Li et al., 2009 [35], anesthetized rats were injected i.c.v. with PF-00734,200 (15.4 nmole in 20 μL sterile physiological saline (n = 6)) or vehicle (sterile physiological saline, 20 μL (n = 8)) using a 25 μL Hamilton syringe at 10 min prior to 6-OHDA lesioning (Supplemental Fig. 2). The coordinates for the i.c.v. injection were 0.8 mm posterior to bregma, 1.2 mm lateral (Left) to midline, and 3.7 mm ventral to the dural surface. The rate of infusion (4 μL/min) was adjusted by a microprocessor-controlled injector mounted to the stereotaxic frame (UMP4; World Precision Instruments, Sarasota, FL, USA). The needle was slowly removed after 2 min upon completion of the injection. Following the exact same protocol described in Yin et al., 2012 [34] and Harvey et al. 2004 [36], anesthetized rats were subjected to a 6-OHDA unilateral medial forebrain bundle lesion. Briefly, 6-OHDA (2.27 μg/μL × 5 μL in 0.9% NaCl containing 0.2 mg/ml ascorbic acid) was unilaterally injected into the medial forebrain bundle (-4.4 mm AP, 1.2 mm ML relative to bregma and 8.4 mm below skull) over 4 min through a syringe pump (Micro 4, WPI, Sarasota, FL), as approved under National Health Research Institutes, Taiwan, Protocol # 102,068-A; 102,102-A. Following this procedure, all animals were monitored daily for adverse signs of health for 1 week (in line with the approved protocols). BrdU and TH localization was determined by immunohistochemistry. Serial sections of the entire brain were cut at 30 μm thickness by cryostat. One series from every sixth section was stained for TH. To control for staining variability, specimens from all experimental groups were included in every batch and reacted together in a net well tray under the same conditions. Sections were rinsed in 0.1 M phosphate buffer (PB), blocked with 4% bovine serum albumin (BSA) and 0.3% Triton x-100 in 0.1 M PB. Sections were then incubated in a primary antibody solution mouse monoclonal anti-TH diluted in 4% BSA and 0.3% Triton x-100 in 0.1 M PB, concentration 1:100 (Chemicon, Temecula, CA) and polyclonal anti-BrdU (1:500, Millipore, MA, USA) for 17-19 h at 4 °C. Sections were then rinsed in 0.1 M PB and incubated in secondary antibodies for 1 h, followed by incubation for 1 h with avidin-biotin-horseradish peroxidase complex. Thereafter, sections were mounted on slides, and coverslipped. TH and BrdU immunoreactivity was examined under a fluorescent microscope. Sections were incubated without primary antibody as a control and observers were blinded as to treatment groups. TH immunoreactivity and BrdU cell number in striatum were averaged from 3 brain sections with visible anterior commissure in each animal. TH immunoreactivity in SNc was measured every 6th Sect. (30 μm per each section) throughout the extent of midbrain. […] volume was analyzed using Cavalieri's method.
# [2] = Body weight of 6-OHDA lesioned rats under chronic gliptin treatment; type: in vivo, rat; details: 12 mg/kg daily from day 7 after lesioning, one day before and 28 days after lesioning
# Protocol: Gliptin treatment was initiated either prior to or after 6-OHDA lesioning (early and delayed treatment, respectively) as follows. […] Specifically for drug admixture into diet, drug was solubilized in 100% ETOH that was then added to the 16.2 g of food chow. Thereafter, the ETOH was evaporated off. […] Animals were weighed twice weekly and the amount of drug added to the chow was modified accordingly to maintain the daily required dose. […] Specifically, the 10 mg/kg oral daily drug dose in our rat studies is equivalent to the routine human daily oral dose (100 mg in a 65 kg human) of these gliptins used in T2DM, and the 30 mg/kg rat dose is equivalent to a threefold higher dose that is well-tolerated in humans.
# [3] = delayed treatment 30 mg/kg daily p.o. from day 7, day 21
# [4] = early treatment 10 mg/kg daily p.o.
# [5] = early treatment 10 mg/kg daily p.o., normalized to non-lesioned side, day 35
SMILES,"TH cell density in the lesioned SNc vs vehicle [1, 3]","TH pixel density in the lesioned striatum vs vehicle [1, 3]","TH immunoreactivity in the lesioned side SNc vs vehicle [1, 4]","TH immunoreactivity in the non-lesioned side SNc [1, 4]","TH pixel density in the lesioned striatum vs vehicle [1, 5]",TH immunohistochemistry in striatum and SNc vs vehicle ([1]; i.c.v. 15.4 nmole 10 min prior to 6-OHDA lesioning),Body weight in 6-OHDA lesioned rats [2]
"O=C([C@@H]1C[C@H](N2CCN(c3ncccn3)CC2)CN1)N1CCC(F)(F)C1 [PF-00734,200, Gosogliptin]",significantly increased,"a trend, but not a statistically significant",significantly increased,did not alter,significantly increased,lack of neuroprotection; also recorded: no different from similarly vehicle-treated animals,did not alter body weight
N[C@@H](CC(=O)N1CCn2c(nnc2C(F)(F)F)C1)Cc1cc(F)c(F)cc1F [Sitagliptin],significantly increased,significantly increased,significantly increased,did not alter,significantly increased,–,did not alter body weight

# Source: PMC11336009 (GeroScience, 2024)
